Results taken from US5837868A, “Process for preparation of chiral 3-amino-pyrrolidine and analogous bicyclic compounds” (Abbott Laboratories, priority 1997, dated 1998).
Where a name gives a salt, the structure may show the parent alone. Read-outs that look alike come from different tables or passages of the source.

What was measured:
Staph. aureus CMX 553 = experiment: In vitro antibacterial activity, agar dilution MIC; type: cell-based; conditions: Staphylococcus aureus, CMX553
Procedure: (§1) Each plate was inoculated with 1:100 (or 1:10 for slow-growing strains, primarily Micrococcus and Streptococcus) dilutions of up to 32 different microorganisms, using a Steers replicator block calibrated to deliver approximately 10^4 colony forming units (CFUs). The inoculated plates were incubated at from about 35° C. to about 37° C. for approximately 20-24 hours. In addition, a control plate using BHI agar containing no test compound was prepared and incubated at the beginning and at the end of each test. The quinolone antibacterial ciprofloxacin was used as a control ("Cntl").
(§2) The MIC was defined as the lowest concentration of test compound yielding no growth (a slight haze or sparsely isolated colonies at the inoculum spot) as compared to the growth control containing no test compound.

P. aeruginosa 5263 = experiment: microbe, parasite or virus in culture; conditions: Pseudomonas aeruginosa
Procedure: as §1, §2

[1] = test system: Strep. pyogenes 930 CONST; experiment: In vitro antibacterial activity, agar dilution MIC; type: cell-based; conditions: Streptococcus pyogenes, 930CONST
Procedure: as §1, §2

P. aeruginosa A5007 = experiment: In vitro antibacterial activity, agar dilution MIC; type: cell-based; conditions: Pseudomonas aeruginosa
Procedure: as §1, §2

[2] = test system: Klebs. pneumoniae ATCC 8045; experiment: In vitro antibacterial activity, agar dilution MIC; type: cell-based; conditions: Klebsiella pneumoniae, ATCC8045
Procedure: as §1, §2

M. luteus ATCC 4698 = experiment: In vitro antibacterial activity, agar dilution MIC; type: cell-based; conditions: Micrococcus luteus, ATCC4698
Procedure: as §1, §2

[3] = test system: Nocardia asteroides ATCC 9970; experiment: In vitro antibacterial activity, agar dilution MIC; type: cell-based; conditions: ATCC9970
Procedure: as §1, §2

P. aeruginosa K799/61 = experiment: In vitro antibacterial activity, agar dilution MIC; type: cell-based; conditions: Pseudomonas aeruginosa, K799/61
Procedure: as §1, §2

[4] = test system: Entero. faecium ATCC 8043; experiment: In vitro antibacterial activity, agar dilution MIC; type: cell-based; conditions: Enterococcus faecium, ATCC8043
Procedure: as §1, §2

Staph. aureus ATCC 6538P = experiment: In vitro antibacterial activity, agar dilution MIC; type: cell-based; conditions: Staphylococcus aureus, ATCC6538P
Procedure: as §1, §2

[5] = test system: Providencia stuartii CMX 640; experiment: In vitro antibacterial activity, agar dilution MIC; type: cell-based; conditions: CMX640
Procedure: as §1, §2

E. coli DC-2 = experiment: In vitro antibacterial activity, agar dilution MIC; type: cell-based; conditions: Escherichia coli, DC2
Procedure: as §1, §2

Staph. aureus 5278 = experiment: In vitro antibacterial activity, agar dilution MIC; type: cell-based; conditions: Staphylococcus aureus
Procedure: as §1, §2

Staph. epidermidis 3519 = experiment: In vitro antibacterial activity, agar dilution MIC; type: cell-based; conditions: Staphylococcus epidermidis
Procedure: as §1, §2

M. luteus ATCC 9341 = experiment: In vitro antibacterial activity, agar dilution MIC; type: cell-based; conditions: Micrococcus luteus, ATCC9341
Procedure: as §1, §2

Staph. aureus A5177 = experiment: In vitro antibacterial activity, agar dilution MIC; type: cell-based; conditions: Staphylococcus aureus
Procedure: as §1, §2

[6] = test system: Acinetob. calcoaceticus CMX 669; experiment: In vitro antibacterial activity, agar dilution MIC; type: cell-based
Procedure: as §1, §2

E. coli KNK 437 = experiment: In vitro antibacterial activity, agar dilution MIC; type: cell-based; conditions: Escherichia coli, KNK437
Procedure: as §1, §2

P. aeruginosa 2862 = experiment: In vitro antibacterial activity, agar dilution MIC; type: cell-based; conditions: Pseudomonas aeruginosa, 2862
Procedure: as §1, §2

[7] = test system: Staph. aureus 1775 Cipro. R.; experiment: In vitro antibacterial activity, agar dilution MIC; type: cell-based; conditions: Staphylococcus aureus
Procedure: as §1, §2

Pseudomonas cepacia 296I = experiment: In vitro antibacterial activity, agar dilution MIC; type: cell-based; conditions: Burkholderia cepacia
Procedure: as §1, §2

Strep. pyogenes EES61 = experiment: In vitro antibacterial activity, agar dilution MIC; type: cell-based; conditions: Streptococcus pyogenes
Procedure: as §1, §2

P. aeruginosa BMH 10 = experiment: In vitro antibacterial activity, agar dilution MIC; type: cell-based; conditions: Pseudomonas aeruginosa, BMH10
Procedure: as §1, §2

Candida albicans CCH 442 = experiment: In vitro antibacterial activity, agar dilution MIC; conditions: Candida albicans, CCH442
Procedure: as §1, §2

P. aeruginosa K799/WT = experiment: In vitro antibacterial activity, agar dilution MIC; type: cell-based; conditions: Pseudomonas aeruginosa
Procedure: as §1, §2

Staph. aureus 642A = experiment: In vitro antibacterial activity, agar dilution MIC; type: cell-based; conditions: Staphylococcus aureus
Procedure: as §1, §2

[8] = test system: Strep. pyogenes 2548 INDUC; experiment: microbe, parasite or virus in culture; type: cell-based; conditions: Streptococcus pyogenes, 2548INDUC
Procedure: as §1, §2

Staph. aureus NCTC10649M = experiment: In vitro antibacterial activity, agar dilution MIC; type: cell-based; conditions: Staphylococcus aureus
Procedure: as §1, §2

E. coli H560 = experiment: In vitro antibacterial activity, agar dilution MIC; type: cell-based; conditions: Escherichia coli
Procedure: as §1, §2

Myco. smegmatis ATCC 114 = experiment: In vitro antibacterial activity, agar dilution MIC; type: cell-based; conditions: Mycolicibacterium smegmatis, ATCC114
Procedure: as §1, §2

Strep. bovis A5169 = experiment: In vitro antibacterial activity, agar dilution MIC; type: cell-based; conditions: Streptococcus equinus
Procedure: as §1, §2

Escherichia coli Juhl = experiment: In vitro antibacterial activity, agar dilution MIC; type: cell-based
Procedure: as §1, §2

[9] = test system: Strep. agalactiae CMX 508; experiment: In vitro antibacterial activity, agar dilution MIC; type: cell-based; conditions: Streptococcus agalactiae, CMX508
Procedure: as §1, §2

E. coli SS = experiment: In vitro antibacterial activity, agar dilution MIC; type: cell-based; conditions: Escherichia coli
Procedure: as §1, §2

[10] = test system: Enter. aerogenes ATCC 13048; experiment: In vitro antibacterial activity, agar dilution MIC; type: cell-based; conditions: Klebsiella aerogenes, ATCC13048
Procedure: as §1, §2

Question: For `CC[C@H]1CN(c2c(F)cn3c(=O)c(C(=O)O)cc(C4CC4)c3c2C)C[C@H]1N` (relative stereo) [Ex. 3, 8-(cis-3-amino-4-ethylpyrrolidin-1-yl)-1-cyclopropyl-7-fluoro-4H-9-methyl-4-oxo-quinolizine-3-carboxylic acid hydrochloride diastereomer A], which MIC (Staph. aureus CMX 553; Staph. aureus CMX 553, BHI agar dilution, 20-24 hours, read-out: MIC) is on record?
Answer: Its MIC is 0.02 µg/mL.

Question: What about the MIC (P. aeruginosa 5263) of the same molecule?
Answer: The MIC was 3.1 µg/mL.

Question: What about the MIC [1] of the same molecule?
Answer: The MIC was 0.05 µg/mL.

Question: And the MIC (P. aeruginosa A5007; P. aeruginosa A5007, BHI agar dilution, 20-24 hours, read-out: MIC)?
Answer: The MIC was 0.39 µg/mL.

Question: What about the MIC ([2]; Klebs. pneumoniae ATCC 8045, BHI agar dilution, 20-24 hours, read-out: MIC) of the same molecule?
Answer: Its MIC is 0.02 µg/mL.

Question: What about the MIC (M. luteus ATCC 4698) of the same molecule?
Answer: The MIC was 0.1 µg/mL.

Question: And the MIC ([3]; Nocardia asteroides ATCC 9970, BHI agar dilution, 20-24 hours, read-out: MIC)?
Answer: The MIC was 0.39 µg/mL.

Question: What about the MIC (P. aeruginosa K799/61) of the same molecule?
Answer: The MIC was 0.02 µg/mL.

Question: What about the MIC [4] of the same molecule?
Answer: Its MIC is 0.1 µg/mL.

Question: And the MIC (Staph. aureus ATCC 6538P; Staph. aureus ATCC 6538P, BHI agar dilution, 20-24 hours, read-out: MIC)?
Answer: Its MIC is 0.01 µg/mL.

Question: And the MIC ([5]; Providencia stuartii CMX 640, BHI agar dilution, 20-24 hours, read-out: MIC)?
Answer: The MIC was 0.78 µg/mL.

Question: And the MIC (E. coli DC-2; E. coli DC-2, BHI agar dilution, 20-24 hours, read-out: MIC)?
Answer: Its MIC is 0.2 µg/mL.

Question: What about the MIC (Staph. aureus 5278; Staph. aureus 5278, BHI agar dilution, 20-24 hours, read-out: MIC) of the same molecule?
Answer: Its MIC is 0.02 µg/mL.

Question: And the MIC (Staph. epidermidis 3519; Staph. epidermidis 3519, BHI agar dilution, 20-24 hours, read-out: MIC)?
Answer: The MIC was 0.02 µg/mL.

Question: And the MIC (M. luteus ATCC 9341)?
Answer: Its MIC is 0.1 µg/mL.

Question: And the MIC (Staph. aureus A5177; Staph. aureus A5177, BHI agar dilution, 20-24 hours, read-out: MIC)?
Answer: The MIC was 0.02 µg/mL.

Question: And the MIC ([6]; Acinetob. calcoaceticus CMX 669, BHI agar dilution, 20-24 hours, read-out: MIC)?
Answer: Its MIC is 0.02 µg/mL.

Question: And the MIC (E. coli KNK 437; E. coli KNK 437, BHI agar dilution, 20-24 hours, read-out: MIC)?
Answer: The MIC was 0.1 µg/mL.

Question: What about the MIC (P. aeruginosa 2862) of the same molecule?
Answer: The MIC was 3.1 µg/mL.

Question: And the MIC ([7]; Staph. aureus 1775 Cipro. R., BHI agar dilution, 20-24 hours, read-out: MIC)?
Answer: Its MIC is 0.78 µg/mL.

Question: What about the MIC (Pseudomonas cepacia 296I; Pseudomonas cepacia 296I, BHI agar dilution, 20-24 hours, read-out: MIC) of the same molecule?
Answer: The MIC was 0.78 µg/mL.

Question: What about the MIC (Strep. pyogenes EES61; Strep. pyogenes EES61, BHI agar dilution, 20-24 hours, read-out: MIC) of the same molecule?
Answer: The MIC was 0.1 µg/mL.

Question: And the MIC (P. aeruginosa BMH 10; P. aeruginosa BMH 10, BHI agar dilution, 20-24 hours, read-out: MIC)?
Answer: Its MIC is 0.39 µg/mL.

Question: What about the MIC (Candida albicans CCH 442) of the same molecule?
Answer: Its MIC is over 100 µg/mL.

Question: And the MIC (P. aeruginosa K799/WT; P. aeruginosa K799/WT, BHI agar dilution, 20-24 hours, read-out: MIC)?
Answer: The MIC was 0.39 µg/mL.

Question: And the MIC (Staph. aureus 642A; Staph. aureus 642A, BHI agar dilution, 20-24 hours, read-out: MIC)?
Answer: The MIC was 0.02 µg/mL.

Question: And the MIC [8]?
Answer: The MIC was 0.05 µg/mL.

Question: What about the MIC (Staph. aureus NCTC10649M; Staph. aureus NCTC10649M, BHI agar dilution, 20-24 hours, read-out: MIC) of the same molecule?
Answer: The MIC was 0.01 µg/mL.

Question: And the MIC (E. coli H560; E. coli H560, BHI agar dilution, 20-24 hours, read-out: MIC)?
Answer: The MIC was 0.01 µg/mL.

Question: What about the MIC (Myco. smegmatis ATCC 114; Myco. smegmatis ATCC 114, BHI agar dilution, 20-24 hours, read-out: MIC) of the same molecule?
Answer: Its MIC is 0.02 µg/mL.

Question: What about the MIC (Strep. bovis A5169; Strep. bovis A5169, BHI agar dilution, 20-24 hours, read-out: MIC) of the same molecule?
Answer: The MIC was 0.1 µg/mL.

Question: What about the MIC (Escherichia coli Juhl; Escherichia coli Juhl, BHI agar dilution, 20-24 hours, read-out: MIC) of the same molecule?
Answer: Its MIC is 0.02 µg/mL.

Question: And the MIC ([9]; Strep. agalactiae CMX 508, BHI agar dilution, 20-24 hours, read-out: MIC)?
Answer: Its MIC is 0.1 µg/mL.

Question: And the MIC (E. coli SS; E. coli SS, BHI agar dilution, 20-24 hours, read-out: MIC)?
Answer: Its MIC is 0.002 µg/mL.

Question: What about the MIC ([10]; Enter. aerogenes ATCC 13048, BHI agar dilution, 20-24 hours, read-out: MIC) of the same molecule?
Answer: The MIC was 0.05 µg/mL.

Question: What does the source list for `Cc1c(N2C[C@@H]3CCCN[C@@H]3C2)c(F)cn2c(=O)c(C(=O)O)cc(C3CC3)c12` [Ex. 1, 1-cyclopropyl-8-(S,S-2,8-diaza-8-bicyclo[4.3.0]-nonyl)-7-fluoro-4H-9-methyl-4-oxo-quinolizine-3-carboxylic acid hydrochloride]?
Answer: MIC (Staph. aureus CMX 553): 0.05 µg/mL; MIC (P. aeruginosa 5263): 3.1 µg/mL; MIC [1]: 0.05 µg/mL; MIC (P. aeruginosa A5007; A5007): 0.2 µg/mL; MIC [2]: 0.01 µg/mL; MIC (M. luteus ATCC 4698): 0.1 µg/mL; MIC ([3]; Nocardia asteroides): 3.1 µg/mL; MIC (P. aeruginosa K799/61): 0.02 µg/mL; MIC [4]: 0.1 µg/mL; MIC (Staph. aureus ATCC 6538P): 0.01 µg/mL; MIC ([5]; Providencia stuartii): 0.39 µg/mL; MIC (E. coli DC-2): 0.05 µg/mL; MIC (Staph. aureus 5278; 5278): 0.01 µg/mL; MIC (Staph. epidermidis 3519; 3519): 0.02 µg/mL; MIC (M. luteus ATCC 9341): 0.1 µg/mL; MIC (Staph. aureus A5177; A5177): 0.02 µg/mL; MIC [6]: 0.02 µg/mL; MIC (E. coli KNK 437): 0.05 µg/mL; MIC (P. aeruginosa 2862): 3.1 µg/mL; MIC [7]: 0.39 µg/mL; MIC (Pseudomonas cepacia 296I; 296I): 0.78 µg/mL; MIC (Strep. pyogenes EES61; EES61): 0.05 µg/mL; MIC (P. aeruginosa BMH 10): 0.1 µg/mL; MIC (Candida albicans CCH 442): > 100 µg/mL; MIC (P. aeruginosa K799/WT; K799/WT): 0.2 µg/mL; MIC (Staph. aureus 642A; 642A): 0.02 µg/mL; MIC [8]: 0.02 µg/mL; MIC (Staph. aureus NCTC10649M; NCTC10649M): 0.01 µg/mL; MIC (E. coli H560; H560): 0.005 µg/mL; MIC (Myco. smegmatis ATCC 114): 0.02 µg/mL; MIC (Strep. bovis A5169; A5169): 0.05 µg/mL; MIC (Escherichia coli Juhl; Escherichia coli): 0.005 µg/mL; MIC [9]: 0.05 µg/mL; MIC (E. coli SS): 0.002 µg/mL; MIC [10]: 0.02 µg/mL
